For the experiment, the system named is RAW 264.7 macrophages. Briefly: ROS production assay in LPS-activated macrophages. It counts as cell-based, murine. Conditions: NAC 10 mM; 30 min before and during LPS (1 μg/ml) stimulation, 0-4 h. The protocol:
ROS production was measured as the relative fluorescence intensity. […] The data are expressed as the mean±SD for three separate experiments. *p<0.05, **p<0.01 compared to the LPS-treated group. RAW-Blue™ cells (Murine macrophages RAW264.7 stably transfected with the NF-κB reporter gene) purchased from InvivoGen (San Diego, Calif.). LPS (from Escherichia coli 0111:B4) and mouse antibodies against phospho-ERK1/2, phospho-JNK1/2, and phospho-p38 (all from Sigma, St. Louis, Mo.). Rabbit antibodies against mouse ERK1, JNK1, and p38, and HRP-labeled second antibodies were purchased from Santa Cruz Biotechnology, and IL-1β, IL-6, and TNF-α ELISA kits from R&D Systems. ROS production assay, NO production assay, NF-κB reporter assay, ELISA, and Western blotting were performed as described previously.

With `CC(=O)N[C@@H](CS)C(=O)O` [NAC, N-acetyl cysteine, reference compound], the “LPS-induced increase in ROS production” value is given as “reduced”.

The values above are taken from patent publication US8993637B2 (priority 2013, dated 2015).
